The text below walks through data of patent publication US20100298377A1, “NOVEL SUBSTITUTED INDAZOLES, THE PREPARATION THEREOF AND USE OF SAME IN THERAPEUTICS” (SANOFI-AVENTIS, priority 2007, published 2010).

Where a name gives a salt, the structure may show the parent alone.

One series has as its target AKT1 (Homo sapiens, UniProt P31749, S473D). Nature of the series: Determination of the IC50 for AKT1 (HTRF). It is filed as biochemical. Conditions: AKT1 without PH domain, activated by PDK1. The procedure:
Determination of the IC50 for AKT1
The inhibitory potential of the compounds is evaluated by HTRF, a time-resolved fluorescence technique based on non-radiative energy transfer (FRET). […] This phosphorylation allows the kinase activity of AKT1 to be activated.
Starting with a 10 mM solution of inhibitors, 3 μl are taken and placed in a 96-well polypropylene plate containing 27 μl of 100% DMSO. The various test compounds are diluted in cascade by taking 15 μl of compound, to which are added 30 μl of 100% DMSO.
The various reaction components are added in the following manner:
Next, 10 μl of the inhibitor solution are added. Finally, the reaction is initiated by adding 10 μl of a solution containing both 100 μM of ATP and 10 μM of biotinylated peptide. The sequence of this peptide is as follows: biot-[…] (reference Neosystem SP000560). The plate is then covered with a plastic film, agitated and finally incubated at RT for 30 minutes. […] After incubation overnight at 4° C., the plate is read using an Ultra evolution spectrophotometer from Tecan. […] All the tests are performed in duplicate and the mean of the two tests is calculated.
For each point, a delta F is calculated in the following manner:
R(Ratio)=counts665 nm/counts620 nm
ΔF % is calculated by the Tecan Ultra Evolution machine.

Chain of AKT1 (P31749 118-480 S473D limits assumed): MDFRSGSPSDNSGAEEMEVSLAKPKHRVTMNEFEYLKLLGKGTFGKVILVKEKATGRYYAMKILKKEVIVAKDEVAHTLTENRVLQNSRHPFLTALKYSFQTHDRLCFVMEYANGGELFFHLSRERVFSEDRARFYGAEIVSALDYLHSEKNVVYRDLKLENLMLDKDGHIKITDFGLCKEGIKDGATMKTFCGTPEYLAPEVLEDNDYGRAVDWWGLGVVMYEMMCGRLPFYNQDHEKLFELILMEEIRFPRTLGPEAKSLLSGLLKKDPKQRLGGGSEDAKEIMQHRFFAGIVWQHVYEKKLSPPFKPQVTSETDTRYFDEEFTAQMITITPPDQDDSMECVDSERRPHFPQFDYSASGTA

Take `CN1CCCCC1C(NC(=O)Nc1ccc2[nH]nc(C#Cc3cccc(F)c3)c2c1)c1ccccc1` [Ex 22, 1-{3-[(3-Fluorophenyl)ethynyl]-1H-indazol-5-yl}-3-[(1-methylpiperid-2-yl)(phenyl)methyl]urea((S,2S),(R,2R))]: the 50% inhibitory concentration (IC50) (usually the point on the concentration scale where inhibition reaches its midpoint) on AKT1 fell in the range of 0.1 to 0.5 µM.

`CN1CCCCC1C(NC(=O)Nc1ccc2[nH]nc(-c3ccc(S(N)(=O)=O)cc3)c2c1)c1ccccc1` (as salt: fumaric acid salt) [Ex 12, 4-[5-({[(1-Methylpiperid-2-yl)(phenyl)methyl]carbamoyl}amino)-1H-indazol-3-yl]benzenesulfonamide((S,2S),(R,2R))]: the melting point – broadly, the temperature of the solid-liquid transition – amounted to 220 °C.

In turn, `O=C(Nc1ccc2[nH]ncc2c1)O[C@@H](c1cccc(I)c1)[C@@H]1CCCCN1` [Ex 45, (S)-(3-Iodophenyl)[(2S)-piperid-2-yl]methyl 1H-indazol-5-ylcarbamate] yielded a half-inhibitory concentration (IC50) against AKT1 of less than 0.1 µM.

In turn, `CN1CCCCC1C(NC(=O)Nc1cc(F)c2[nH]nc(NC(=O)c3ccccc3)c2c1)c1ccccc1` (as salt: fumaric acid salt) [Ex 19, N-[7-Fluoro-5-({[(1-methylpiperid-2-yl)(phenyl)methyl]carbamoyl}amino)-1H-indazol-3-yl]benzamide((S,2S),(R,2R))] displayed a melting point of 164 °C.

Compound `CN1CCCCC1C(NC(=O)Nc1ccc2[nH]nc(C#Cc3cccnc3)c2c1)c1ccccc1` (as salt: fumaric acid salt) [Ex 25, 1-[(1-Methylpiperid-2-yl)(phenyl)methyl]-3-[3-(pyrid-3-ylethynyl)-1H-indazol-5-yl]urea((S,2S),(R,2R))] yielded a melting point of 230 °C.

Compound `CN1CCCCC1C(NC(=O)Nc1cc(F)c2[nH]nc(NC(=O)c3ccccc3)c2c1)c1ccccc1` [Ex 19, N-[7-Fluoro-5-({[(1-methylpiperid-2-yl)(phenyl)methyl]carbamoyl}amino)-1H-indazol-3-yl]benzamide((S,2S),(R,2R))] had a 50% inhibitory concentration (IC50) at AKT1 of 0.5 to 2 µM.

The compound `O=C(Nc1ccc2[nH]nc(C#Cc3ccccc3)c2c1)N[C@@H](c1ccc(Cl)c(Cl)c1)[C@@H]1CCCCN1` [Ex 26, 1-{(S)-(3,4-Dichlorophenyl)[(2S)-piperid-2-yl]methyl}-3-[3-(phenylethynyl)-1H-indazol-5-yl]urea] registered an IC50 against AKT1 of 0.1 to 0.5 µM.

In the case of `CN1CCCCC1C(NC(=O)Nc1ccc2[nH]ncc2c1)c1cc(F)cc(Cl)c1` (stereo not shown) (as salt: hydrochloride) [Ex 11, 1-[(3-Chloro-5-fluorophenyl)(1-methylpiperid-2-yl)methyl]-3-(1H-indazol-5-yl)urea], the melting point stood at 192 °C.

Compound `O=C(Nc1ccc2[nH]ncc2c1)O[C@@H](c1cc(F)cc(Cl)c1)[C@@H]1CCCCN1` (as salt: hydrochloride) [Ex 35, (S)-(3-Chloro-5-fluorophenyl)[(2S)-piperid-2-yl]methyl 1H-indazol-5-ylcarbamate] yielded a melting point of 226 °C.

Take `Nc1n[nH]c2ccc(NC(=O)N[C@@H](c3ccc(Cl)c(Cl)c3)[C@@H]3CCCCN3)cc12` (as salt: hydrochloride) [Ex 29, 1-(3-Amino-1H-indazol-5-yl)-3-{(S)-(3,4-dichlorophenyl)[(2S)-piperid-2-yl]methyl}urea]: the melting point was found to be 214 °C.

`O=C(Nc1ccc2[nH]ncc2c1)O[C@H](c1cc(F)cc(Cl)c1)[C@H]1CCCCN1` [Ex 39d, (R)-(3-Chloro-5-fluorophenyl)[(2R)-piperid-2-yl]methyl 1H-indazol-5-ylcarbamate]: the half-maximal inhibitory concentration (IC50) against AKT1 was less than 0.1 µM.

In turn, `CN1CCCCC1C(NC(=O)Nc1ccc2[nH]nc(C#Cc3ccc(F)cc3)c2c1)c1ccccc1` (as salt: fumaric acid salt) [Ex 24, 1-{3-[(4-Fluorophenyl)ethynyl]-1H-indazol-5-yl}-3-[(1-methylpiperid-2-yl)(phenyl)methyl]urea((S,2S),(R,2R))] displayed a melting point of 244 °C.

In the case of `CN1CCCCC1C(c1ccccc1)N(C)C(=O)Nc1ccc2[nH]ncc2c1` (as salt: fumaric acid salt) [Ex 32, 3-(1H-Indazol-5-yl)-1-methyl-1-[(1-methylpiperid-2-yl)phenylmethyl]urea((S,2S),(R,2R))], the melting point was 194 °C.

`CN1CCCCC1C(NC(=O)Nc1ccc2[nH]nc(-c3ccncc3)c2c1)c1ccccc1` (as salt: fumaric acid salt) [Ex 13, 1-[(1-Methylpiperid-2-yl)(phenyl)methyl]-3-(3-pyrid-4-yl-1H-indazol-5-yl)urea((S,2S),(R,2R))] showed a melting point of 205 °C.

For the compound `CC(C)(C)c1ccc(NC(=O)c2cccc(C(OC(=O)Nc3ccc4[nH]ncc4c3)[C@@H]3CCCCN3)c2)cc1` (stereo partly drawn) [Ex 42, {3-[(4-tert-Butylphenyl)carbamoyl]phenyl}[(2S)-piperid-2-yl]methyl 1H-Indazol-5-yl carbamate], the concentration for half-maximal inhibition (IC50) at AKT1 lay within 0.5 to 2 µM.

`CN(C(=O)NC(c1ccccc1)C1CCCCN1C)c1ccc2[nH]ncc2c1` (as salt: fumaric acid salt) [Ex 33, 1-(1H-Indazol-5-yl)-1-methyl-3-[(1-methylpiperid-2-yl)(phenyl)methyl]urea((S,2S),(R,2R))] had a melting point of 205 °C.

Take `CN1CCCCC1C(NC(=O)Nc1ccc2[nH]nc(-c3cccnc3)c2c1)c1ccccc1` (as salt: fumaric acid salt) [Ex 14, 1-[(1-Methylpiperid-2-yl)(phenyl)methyl]-3-(3-pyrid-3-yl-1H-indazol-5-yl)urea((S,2S),(R,2R))]: the melting point came to 210 °C.

In the case of `CN1CCCCC1C(NC(=O)Nc1ccc2[nH]nc(NC(=O)c3ccccc3)c2c1)c1ccccc1` [Ex 28, N-[5-({[(1-Methylpiperid-2-yl)(phenyl)methyl]carbamoyl}amino)-1H-indazol-3-yl]benzamide((S,2S),(R,2R))], the IC50 against AKT1 is 0.1 to 0.5 µM.

In the case of `O=C(Nc1ccc2[nH]ncc2c1)OC(c1cccc(C(=O)Nc2ccccc2)c1)[C@@H]1CCCCN1` (stereo partly drawn) [Ex 43, [3-(Anilinocarbonyl)phenyl][(2S)-piperid-2-yl]methyl 1H-Indazol-5-ylcarbamate], the concentration for half-maximal inhibition (IC50) against AKT1 is 0.1 to 0.5 µM.

Regarding `CN1CCCCC1C(NC(=O)Nc1ccc2[nH]nc(C#Cc3ccccc3)c2c1)c1ccccc1` (as salt: fumaric acid salt) [Ex 23, 1-[(1-Methylpiperid-2-yl)(phenyl)methyl]-3-[3-(phenylethynyl)-1H-indazol-5-yl]urea((S,2S),(R,2R))], the melting point is 227 °C.

With `CCOC(=O)c1cccc(C(OC(=O)Nc2ccc3[nH]ncc3c2)[C@@H]2CCCCN2)c1` (stereo partly drawn) [Ex 41, Ethyl 3-{[(1H-Indazol-5-ylcarbamoyl)oxy][(2S)-piperid-2-yl]methyl}benzoate], the concentration for half-maximal inhibition (IC50) on AKT1 fell in the range of 0.5 to 2 µM.

`CN1CCCCC1C(NC(=O)Nc1cc(F)c2[nH]ncc2c1)c1ccccc1` (as salt: fumaric acid salt) [Ex 21, 1-(7-Fluoro-1H-indazol-5-yl)-3-[(1-methylpiperid-2-yl)(phenyl)methyl]urea((S,2S),(R,2R))] registered a melting point of 224 to 227 °C.

Regarding `CN1CCCCC1C(NC(=O)Nc1ccc2[nH]nc(-c3cccnc3)c2c1)c1ccccc1` [Ex 14, 1-[(1-Methylpiperid-2-yl)(phenyl)methyl]-3-(3-pyrid-3-yl-1H-indazol-5-yl)urea((S,2S),(R,2R))], on AKT1, the IC50 is less than 0.1 µM.

`CN1CCCCC1C(c1ccccc1)n1ccn(-c2ccc3[nH]ncc3c2)c1=O` (as salt: fumarate) [Ex 30, 1-(1H-Indazol-5-yl)-3-[(1-methylpiperid-2-yl)phenylmethyl]-1,3-dihydroimidazol-2-one((S,2S),(R,2R))]: the melting point fell in the range of 231 to 232 °C.

Consider “(7-Fluoro-1H-indazol-5-yl)-(S)-(3-chloro-5-fluorophenyl)-(S)-piperid-2-ylmethyl carbamate [Ex 49]”, for which the 50% inhibitory concentration (IC50) at AKT1 was less than 0.1 µM.

As for `CN(C(=O)NC(c1ccccc1)C1CCCCN1C)c1ccc2[nH]ncc2c1` [Ex 33, 1-(1H-Indazol-5-yl)-1-methyl-3-[(1-methylpiperid-2-yl)(phenyl)methyl]urea((S,2S),(R,2R))], on AKT1, the IC50 lay within 0.5 to 2 µM.

`CN1CCCCC1C(NC(=O)Nc1ccc2[nH]nc(-c3ccc(S(N)(=O)=O)cc3)c2c1)c1ccccc1` [Ex 12, 4-[5-({[(1-Methylpiperid-2-yl)(phenyl)methyl]carbamoyl}amino)-1H-indazol-3-yl]benzenesulfonamide((S,2S),(R,2R))]: on AKT1, the IC50 was less than 0.1 µM.

Turning to `CN1CCCCC1C(c1ccccc1)N(C)C(=O)Nc1ccc2[nH]ncc2c1` [Ex 32, 3-(1H-Indazol-5-yl)-1-methyl-1-[(1-methylpiperid-2-yl)phenylmethyl]urea((S,2S),(R,2R))], the IC50 on AKT1 lay within 0.5 to 2 µM.

As for `O=C(Nc1ccc2[nH]ncc2c1)O[C@@H](c1cc(F)cc(Cl)c1)[C@H]1CCCCN1` [Ex 39c, (S)-(3-Chloro-5-fluorophenyl)[(2R)-piperid-2-yl]methyl 1H-indazol-5-ylcarbamate], on AKT1, the half-inhibitory concentration (IC50) lay in the range of 0.1 to 0.5 µM.

Regarding `CN1CCCCC1C(c1ccccc1)n1ccn(-c2ccc3[nH]ncc3c2)c1=O` [Ex 30, 1-(1H-Indazol-5-yl)-3-[(1-methylpiperid-2-yl)phenylmethyl]-1,3-dihydroimidazol-2-one((S,2S),(R,2R))], the IC50 against AKT1 lay in the range of 0.1 to 0.5 µM.

On AKT1, `O=C(Nc1ccc2[nH]ncc2c1)O[C@@H](c1cccc(C(F)(F)F)c1)[C@@H]1CCCCN1` [Ex 44, (S)-(3-Trifluoromethylphenyl)[(2S)-piperid-2-yl]methyl 1H-indazol-5-ylcarbamate] returned an IC50 of less than 0.1 µM.
